The values that follow come from US12083131B2 (priority 2014, dated 2024).

The subject of data set [1] is severe postpartum depression (PPD). Kind of data set: Clinical study of allopregnanolone injection in adult female patients with severe postpartum depression.
Data set [2] deals with essential tremor. Kind of data set: Clinical trial of allopregnanolone injection in essential tremor (Stage One placebo-controlled crossover, low-dose; Stage Two open-label, high-dose).
Data set [3] relates to SRSE. Kind of data set: Continuous infusion allopregnanolone under emergency-use INDs for SRSE.
Data set [4] in a line: Other clinical studies and experience to date with intravenous allopregnanolone. The note with it: all AEs reported to date.
The test system of data set [5] is TBI. Kind of data set: Treatment of subjects with TBI at the starting dose. The note with it: starting dose (29 μg/kg/hr), 11 subjects with TBI.
The conditions of data set [6]: in vivo; cited from earlier work.

Regarding `CC(=O)[C@H]1CC[C@H]2[C@@H]3CC[C@H]4C[C@H](O)CC[C@]4(C)[C@H]3CC[C@]12C` [allopregnanolone, 3 alpha-hydroxy-5 alpha-pregnan-20-one], the “Response (relief from symptoms) after treatment” value in data set [1] (after treatment) is given as “sustained”. Further, in data set [1] (all four patients), the “Clinical Global Impression-Improvement (CGI-I) scale” value is reported as “consistent improvement” and the “Remission as measured by HAM-D during the treatment period” value is given as “rapidly achieved remission”. The Tolerability entry in data set [1] (all patients, on therapy or during the 30-day follow-up period) was “well-tolerated”. Moreover, the “Time to improvement of symptoms after treatment” value in data set [1] (four patients (e.g., within 24 hours, within 12 hours after treatment)) is on record as “one”. Besides, the “Mean HAM-D score at baseline” value in data set [1] (four patients, baseline, >24.0 is severe) was determined as 26.5. Moreover, the “Mean HAM-D score by the end of the treatment period” value in data set [1] (four patients, end of treatment period, below 7.0 is symptom-free) was found to be 1.8. Moreover, the “Time to improvement in depression after administration” value in data set [1] (four women with severe PPD) was no more than 24 h. In data set [1] (women with severe PPD, intravenous administration), the “Improvement in depression, number of women” value was “four of four”. The “Tolerability of the maintenance dose” value in data set [2] (86 mcg/kg/hour, Stage One) is “good tolerability”. The same compound came in with an Adverse events reported in data set [2] (Stage One, arms not distinguished, one case each of phlebitis, somnolence, abnormal dreams, back pain, nasal congestion, headache, fatigue, nausea, two cases of dizziness) of 10. Further, the “Sedation scores versus placebo” value in data set [2] (conclusion of Stage One) is reported as “no clear difference”. In data set [2] (conclusion of Stage One, maintenance dose 86 mcg/kg/hour), the “Measures of activity in essential tremor (accelerometer and TETRAS scores) versus placebo” value is “no clear difference”. Besides, the “Drug-related SAEs at the target/maximum level of exposure” value in data set [3] (150 nM exposure, 6 subjects with SRSE, continuous infusion) was “no drug-related SAEs reported”. Also, in data set [3] (150 mcg/kg/hour, six subjects with SRSE), the “Drug-related serious adverse events at maintenance dose” value is “without any drug-related serious adverse events”. Also, in data set [4], the “AEs reported to date” value was “mild and non-serious”. Also, in data set [5], the “SAEs at the starting dose” value is “no SAEs reported”.
Regarding `CC(C)c1cccc(C(C)C)c1O` [propofol], in data set [6], the “Exposure of breast-feeding infant” value is “less than 0.1 % of the maternal dose”.
In the case of `Cc1ncc2n1-c1ccc(Cl)cc1C(c1ccccc1F)=NC2` [midazolam], in data set [6], the “Exposure of breast-feeding infant” value is given as “less than 0.1 % of the maternal dose”.
